Where two headings read alike, the source gives them in different places.
Legend:
wild-type MDFs = assay: Toxicity of compound in wild-type MDFs; type: cell-based; details: triplicate experiments
Source text: (§1) Mouse dermal fibroblasts (MDFs) were isolated from three MlkI^−/− mice and three congenic wild type mice and then immortalized by SV40 large T antigen to generate three biologically independent cell lines, as described in Murphy J M, et al. (2013), Immunity 39(3):443-453. Immortalized MDFs were similarly prepared from three Ripk3^−/− mice and congenic wild type mice. MDFs and HEK293T were maintained in Dulbecco's modified Eagle's medium (DMEM) supplemented with 8-10% v/v fetal calf serum (FCS), and 5 μg/mL puromycin for lines stably transduced with inducible expression constructs for MLKL. U937 cells were cultured in RPMI1640 supplemented with 8% v/v FCS. Cell death assays were carried out in 24 well plates, seeding 1×10^5 cells per well. Cells attached over 4 h in the presence of 10 ng/mL doxycycline or 20 ng/mL were then treated with assorted combinations of Necrostatin (50 μM) and Q-VD-OPh (5 μM) 30 min prior to addition of TNF (100 ng/mL) and Smac mimetic (500 nM). After 24 h for MDF cells or 48 h for U937 cells, cells were harvested and PI positive cells (1 μg/mL) quantified using a BD FACSCalibur flow cytometer.

[1] = test system: wild type MDFs (mouse dermal fibroblasts); assay: Cell death assay, TSQ-induced necroptosis in MDFs (PI, flow cytometry); type: cell-based; details: 24 h
Source text: as §1

[2] = molecular target: T1, human MLKL(190-471) pseudokinase domain (Homo sapiens, UniProt Q8NB16); assay: STD NMR nucleotide competition, human MLKL; type: binding; parameters: His6 (pFastBac HTb, TEV-cleavable) (N, cleaved yes); made in house; host or cells: Sf21 insect cells; details: 200 μM compound, 200 μM nucleotide, 2 μM human MLKL(190-471)
T1 sequence (Q8NB16 190-471): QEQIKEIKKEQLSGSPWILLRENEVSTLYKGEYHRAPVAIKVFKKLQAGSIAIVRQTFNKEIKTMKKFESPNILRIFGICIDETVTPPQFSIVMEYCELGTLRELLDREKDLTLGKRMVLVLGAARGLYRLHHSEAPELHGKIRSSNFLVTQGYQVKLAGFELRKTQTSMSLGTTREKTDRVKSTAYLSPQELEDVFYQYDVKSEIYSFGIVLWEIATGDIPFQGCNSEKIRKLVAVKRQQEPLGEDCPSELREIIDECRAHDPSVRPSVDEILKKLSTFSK
Method: Nucleotides were dissolved in NMR buffer (20 mM HEPES, pH 7.5, 200 mM NaCl, 90% D2O, 10% H2O) at a final concentration of 200 μM in each sample of STD experiments. Three different samples were prepared for each nucleotide: (1) ATP or ADP with protein buffer added as equivalent volume of protein containing samples (2) ATP or ADP with MLKL pseudokinase domain at a final concentration of 2 μM (3) ATP or ADP with MLKL pseudokinase domain (2 μM) with test compound at 200 μM. […] Saturation of the protein resonances was achieved by a 4 s train of Gaussian pulses centred at −0.5 ppm. For the reference spectra, a similar saturation pulse was applied at a frequency centred 20,000 Hz off-resonance. A 15 ms T2-spin-lock period was employed before acquisition to allow the residual protein signal to decay. NMR data were processed in TOPSPIN version 3.2 (Bruker BioSpin).

[3] = test system: U937 cells gene-edited to delete MLKL; assay: Toxicity / TS-induced apoptotic death in U937 cells gene-edited to delete MLKL; type: cell-based, human; details: U937 cells lacking MLKL, TS treatment
Source text: as §1

U937 cells = assay: Counter screen: cell viability without TSQ cocktail (off target effect); type: cell-based; details: U937 without TSQ cocktail
Method: In parallel, all compounds are tested for their ability to affect cell viability. The same U937 cells are treated with compound in DMSO without the TSQ cocktail. This counter screen enables evaluation of off-target effects. In this case gain, cell viability is measured by flow cytometry after PI staining.

[4] = test system: U937 human histiocytic leukemia cell line; assay: Screening for inhibition of TSQ induced necroptosis, 96 well plate format; type: cell-based; details: U-937, 48 h
recombinant RIPK3 = molecular target: T2, recombinant RIPK3 (Mus musculus, UniProt Q9QZL0); assay: In vitro kinase assay; type: biochemical; details: for concentrations leading to enhanced RIPK3-mediated phosphorylation of MLKL: mouse MLKL(179-464) as substrate
T2 construct: Recombinant mRIPK3 kinase domain was expressed and purified from Sf21 cells; made in house; host or cells: Sf21 cells
T2 sequence (Q9QZL0 22-292 limits assumed): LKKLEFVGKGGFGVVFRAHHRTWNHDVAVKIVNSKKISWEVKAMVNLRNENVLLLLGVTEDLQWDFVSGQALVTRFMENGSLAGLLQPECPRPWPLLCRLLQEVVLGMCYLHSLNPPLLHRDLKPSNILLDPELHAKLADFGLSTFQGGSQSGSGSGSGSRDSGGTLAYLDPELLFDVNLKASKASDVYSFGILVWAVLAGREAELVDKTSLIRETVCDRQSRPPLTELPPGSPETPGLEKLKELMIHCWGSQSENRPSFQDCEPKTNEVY
Method: In vitro kinase assays were performed as described previously in Murphy J M, et al. (2013), Immunity 39(3):443-453 and Cook W D, et al. (2014) Cell Death Diff. in press, but for the addition of either a DMSO control or up to 12.5 μM of test compound in 0.5% v/v final DMSO.

CN(c1ccc(NC(=O)Nc2ccc(OC(F)(F)F)cc2)cc1)c1ccnc(Nc2cccc(S(N)(=O)=O)c2)n1 [Compound 1, 3-((4-(methyl(4-(3-(4-(trifluoromethoxy)phenyl)ureido)phenyl)amino)pyrimidin-2-yl)amino)benzenesulfonamide] was tested, and the “concentrations at which toxicity induces death of wild-type MDFs” value (wild-type MDFs) was at least 5 µM, the IC50 ([1]; Mus musculus, Fibroblast, read-out: IC50, rescue from TSQ-induced necroptosis) was about 0.5 µM and the “cells rescued from TSQ-induced necroptosis” value ([1]; wt MDFs) was about 50%. The “competition with ATP and ADP for binding (STD NMR)” value [2] was “can compete with (i) ATP and (ii) ADP”, the “effect on TS-induced apoptotic death” value [3] was “unaffected” and the “Off target effect (% cell death) at 500 nM” value (U937 cells; compound at 500 nM) was under 20%. For the same molecule, the “Off target effect (% cell death) at 1 uM” value (U937 cells; compound at 1 uM) was under 20%, the “Off target effect (% cell death) at 5 uM” value (U937 cells; compound at 5 uM) was 60% and the “Off target effect (% cell death) at 10 uM” value (U937 cells; compound at 10 uM) was 79%. For the same molecule, the IC50 ([4]; read-out: Cell based assay Average) was 0.0694 µM, the IC50 ([4]; read-out: Cell based assay IC50) was 0.0254 µM and the “inhibition of RIPK3 catalytic activity and of RIPK3-mediated phosphorylation of MLKL” value (recombinant RIPK3; in vitro kinase assays) was “neither the catalytic activity of recombinant RIPK3 nor RIPK3-mediated phosphorylation of MLKL were inhibited”. The “concentrations leading to enhanced RIPK3-mediated phosphorylation of MLKL” value (recombinant RIPK3) was at least 10 µM, the “concentrations leading to enhanced RIPK3-mediated phosphorylation of MLKL” value (recombinant RIPK3; listed as compound 1) was over 5 µM and the “impact on recombinant RIPK3 kinase activity” value (recombinant RIPK3; relative to DMSO control, up to 12.5 μM test compound) was “no impact”.

Reference: patent US20170114025A1, “METHODS FOR INHIBITING NECROPTOSIS” (Catalyst Therapeutics Pty Ltd, priority 2014, published 2017)
